# Experimental data from ChEMBL document CHEMBL1126438, “DNA alkylation properties of the duocarmycins: (+)-duocarmycin A, epi-(+)-duocarmycin A, ent-()-duocarmycin A and epi,ent-()-duocarmycin A” (Bioorg Med Chem Lett, 1992).
# Experiments:
# B16 = assay: In vitro evaluation for cytotoxicity against B16 melanoma.; assay type: functional, cell-based; conditions: Mus musculus
# L1210 = assay: In vitro evaluation for cytotoxicity against L1210 cell line; assay type: functional, cell-based; conditions: Mus musculus
# P388 = assay: In vitro evaluation for cytotoxicity against P388 murine leukemia cell line; assay type: functional, cell-based, Mus musculus
# [1] = Mus musculus, P388, read-out: IC50
Compound,IC50 (B16),IC50 (L1210),IC50 (P388; p388),IC50 (P388; [1])
COC(=O)[C@]1(C)N=C2C(=O)C=C3N(C(=O)c4cc5cc(OC)c(OC)c(OC)c5[nH]4)C[C@H]4C[C@@]34C2=C1O,0.2 ng/mL,0.1 ng/mL,0.002 ng/mL,–
COC(=O)[C@]1(C)N=C2C(=O)C=C3N(C(=O)c4cc5cc(OC)c(OC)c(OC)c5[nH]4)C[C@@H]4C[C@]34C2=C1O,> 3 ng/mL,> 12 ng/mL,–,≥ 0.3 ng/mL
COC(=O)[C@@]1(C)N=C2C(=O)C=C3N(C(=O)c4cc5cc(OC)c(OC)c(OC)c5[nH]4)C[C@H]4C[C@@]34C2=C1O,0.8 ng/mL,0.8 ng/mL,–,0.007 ng/mL
COC(=O)[C@@]1(C)N=C2C(=O)C=C3N(C(=O)c4cc5cc(OC)c(OC)c(OC)c5[nH]4)C[C@@H]4C[C@]34C2=C1O,> 3 ng/mL,> 11 ng/mL,–,≥ 0.3 ng/mL
